Consider 1 compound from EP0741749B1, “MERCURY BINDING POLYPEPTIDES AND N[…] THEREFOR” (priority 1994, dated 1995).

The subject of this experiment is binding of antibody secreted by hybridoma designated as 1F10 to immobilized glutathione-mercuric ion. The experiment is described as follows: Competitive inhibition ELISA: inhibition of antibody binding by metal ions. As to conditions: culture fluid of 1F10; at the highest concentration (final range 10^-1 M to 10^-6 M); 100000 µM. The protocol: Various methods were used to confirm that the antibodies secreted by hybridomas 4A10 and 1F10 were specific to mercuric ions. If the antibody being secreted by these hybridomas were specific, it should be possible to inhibit binding of the antibody to glutathione-mercuric ions by incubation in the presence of various concentrations of mercuric chloride. This competitive inhibition assay was conducted with antibody-containing culture fluids from the parental hybridomas 4A10 and 1F10.
Metal ions at the indicated concentrations were incubated with culture fluid from the monoclonal antibody in an enzyme-linked immunosorbent assay ("ELISA") plate. The absorbance at 405 nm was determined for each sample, and the percent inhibition of each metal ion concentration was determined by the following formula: Percent inhibition=(A405 of inhibitor - A405 of neg. control)/(A405 of pos. control - A405 of neg. control) [formula]
Various other metals were assayed for inhibition of binding of the monoclonal antibodies to mercuric ion. […] The absorbance at 405 nm was determined for each sample, and the percent inhibition of each metal ion concentration was determined by the same formula used for Figure 1. […]
The negative control measured the binding of a dinitrophenol specific antibody to the antigen mentioned above in the presence of the corresponding metal ions. […]

The structures appear in SMILES notation.

The compound `[Cl-].[Cl-].[Mg+2]` [magnesium chloride] gave a Percent inhibition of approximately 50%.
